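Where inhibition never reached the appropriate level, the endpoint shown equals the highest concentration tested. Otherwise, values were interpolated linearly from a five-concentration, 48-hour dose response in 96-well plates. Abbreviation: GI50, concentration required for 50% inhibition of growth.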 The source made the active and inactive calls. Cut-off read from the data, not from the text of the source: active = GI50 up to about 1.1 µM and inactive = higher.
How the values were obtained:
Assay in all cases: NCI-60 cell line screen, 48 h
[1] = tested on: T47D
[2] = tested on: HL-60
[3] = tested on: IGROV-1
[4] = tested on: SK-MEL-28
[5] = tested on: NCI-H522
[6] = tested on: OVCAR-8
[7] = tested on: OVCAR-3
[8] = tested on: RPMI-8226
[9] = tested on: NCI/ADR-RES
[10] = tested on: COLO 205
[11] = tested on: UACC-62
[12] = tested on: LOX IMVI
[13] = tested on: NCI-H23
[14] = tested on: U-251
[15] = tested on: OVCAR-5
[16] = tested on: OVCAR-4
[17] = tested on: HCT-116
[18] = tested on: SF-539
[19] = tested on: NCI-H460
[20] = tested on: DU-145
[21] = tested on: SW-620
[22] = tested on: PC-3
[23] = tested on: BT-549
[24] = tested on: A549
[25] = tested on: SK-OV-3
[26] = tested on: MCF7
[27] = tested on: HT-29
[28] = tested on: RXF 393
[29] = tested on: SF-295
[30] = tested on: MDA-MB-435
[31] = tested on: SR
[32] = tested on: HOP-92
[33] = tested on: SN12C
[34] = tested on: 786-0
[35] = tested on: SNB-19
[36] = tested on: HOP-62
[37] = tested on: UACC-257
[38] = tested on: M14
[39] = tested on: HCC 2998
[40] = tested on: UO-31
[41] = tested on: A498
[42] = tested on: CAKI-1
[43] = tested on: NCI-H226
[44] = tested on: EKVX
[45] = tested on: SK-MEL-5
[46] = tested on: KM12
[47] = tested on: ACHN
[48] = tested on: SK-MEL-2
[49] = tested on: SF-268
[50] = tested on: SNB-75
[51] = tested on: MOLT-4
[52] = tested on: MDA-MB-231
[53] = tested on: HCT-15
[54] = tested on: Hs-578T
[55] = tested on: TK-10

`CN(C)CN1C(=O)S/C(=C2\C(=O)N(CN(C)C)c3ccccc32)C1=O` was tested. Which GI50 [1] did it give?
The GI50 was 39.4 µM (inactive).

What about the GI50 [2] of the same molecule?
Its GI50 is 18.2 µM (inactive).

What about the GI50 [3] of the same molecule?
The GI50 was 57.5 µM (inactive).

And the GI50 [4]?
The GI50 was 64.7 µM (inactive).

What about the GI50 [5] of the same molecule?
The GI50 was 36.5 µM (inactive).

And the GI50 [6]?
The GI50 was 46.6 µM (inactive).

What about the GI50 [7] of the same molecule?
The GI50 was 50.2 µM (inactive).

What about the GI50 [8] of the same molecule?
Its GI50 is 18 µM (inactive).

What about the GI50 [9] of the same molecule?
Its GI50 is 40.2 µM (inactive).

What about the GI50 [10] of the same molecule?
Its GI50 is 36.4 µM (inactive).

And the GI50 [11]?
Its GI50 is 65.3 µM (inactive).

And the GI50 [12]?
The GI50 was 21.2 µM (inactive).

And the GI50 [13]?
The GI50 was 21.7 µM (inactive).

And the GI50 [14]?
Its GI50 is 40.6 µM (inactive).

What about the GI50 [15] of the same molecule?
The GI50 was > 100 µM (inactive).

And the GI50 [16]?
The GI50 was 55.1 µM (inactive).

And the GI50 [17]?
Its GI50 is 39.8 µM (inactive).

And the GI50 [18]?
Its GI50 is 40.6 µM (inactive).

What about the GI50 [19] of the same molecule?
Its GI50 is 32.3 µM (inactive).

What about the GI50 [20] of the same molecule?
Its GI50 is 32.1 µM (inactive).

And the GI50 [21]?
Its GI50 is 30.6 µM (inactive).

And the GI50 [22]?
The GI50 was 45.6 µM (inactive).

What about the GI50 [23] of the same molecule?
Its GI50 is 45.1 µM (inactive).

What about the GI50 [24] of the same molecule?
The GI50 was 45.8 µM (inactive).

What about the GI50 [25] of the same molecule?
The GI50 was > 100 µM (inactive).

What about the GI50 [26] of the same molecule?
Its GI50 is 38.5 µM (inactive).

And the GI50 [27]?
The GI50 was 42.4 µM (inactive).

And the GI50 [28]?
Its GI50 is 19.9 µM (inactive).

What about the GI50 [29] of the same molecule?
Its GI50 is 96.6 µM (inactive).

And the GI50 [30]?
The GI50 was 66.1 µM (inactive).

What about the GI50 [31] of the same molecule?
Its GI50 is 18.9 µM (inactive).

And the GI50 [32]?
Its GI50 is > 100 µM (inactive).

And the GI50 [33]?
Its GI50 is 23.7 µM (inactive).

And the GI50 [34]?
The GI50 was 35.7 µM (inactive).

What about the GI50 [35] of the same molecule?
The GI50 was 67.5 µM (inactive).

What about the GI50 [36] of the same molecule?
The GI50 was 41.6 µM (inactive).

What about the GI50 [37] of the same molecule?
The GI50 was 32.7 µM (inactive).

What about the GI50 [38] of the same molecule?
The GI50 was 21.7 µM (inactive).

And the GI50 [39]?
Its GI50 is 26.8 µM (inactive).

What about the GI50 [40] of the same molecule?
The GI50 was 31.3 µM (inactive).

What about the GI50 [41] of the same molecule?
The GI50 was > 100 µM (inactive).

What about the GI50 [42] of the same molecule?
The GI50 was 32 µM (inactive).

And the GI50 [43]?
The GI50 was 38.9 µM (inactive).

What about the GI50 [44] of the same molecule?
The GI50 was 43.3 µM (inactive).

What about the GI50 [45] of the same molecule?
Its GI50 is 38.6 µM (inactive).

And the GI50 [46]?
The GI50 was 41.5 µM (inactive).

What about the GI50 [47] of the same molecule?
Its GI50 is 43.7 µM (inactive).

What about the GI50 [48] of the same molecule?
Its GI50 is 32.1 µM (inactive).

And the GI50 [49]?
Its GI50 is 32.8 µM (inactive).

And the GI50 [50]?
Its GI50 is 22.2 µM (inactive).

What about the GI50 [51] of the same molecule?
The GI50 was < 0.01 µM (active).

And the GI50 [52]?
Its GI50 is 66.2 µM (inactive).

What about the GI50 [53] of the same molecule?
The GI50 was 30.4 µM.

What about the GI50 [54] of the same molecule?
The GI50 was 34.7 µM (inactive).

What about the GI50 [55] of the same molecule?
Its GI50 is 46.3 µM (inactive).

— ChEMBL document CHEMBL1201862, “PubChem BioAssay data set” (2004)
